Reference: patent publication US9815833B2, “Pyridine derivative and medical use thereof” (Chengdu Easton Biopharmaceuticals Co., Ltd., priority 2013, dated 2017)

System: APTT of healthy mice
Experiment: Effects on APTT of healthy mice
Format: in vivo, KM mice
Conditions: 5 mg/kg i.g.; for APTT (sec): KM mice, blood collected 1 hour after administration, x ± SD, 10 mice per group; for anticoagulant effect (APTT) compared with positive drug Apixaban: mice, 1 h after administration, same dose
Description: Test for four coagulation parameters (including prothrombin time (PT), activated partial thromboplastin time (APTT), thrombin time (TT) and fibrinogen (FIB)) belongs to one of clinical inspection items, and is necessary to thrombotic disease inspections or before the surgery. APTT mainly reflects whether the intrinsic coagulation system status is normal or not. Accordingly, the APTT value is used as a detection indicator in this test of the present invention. The anticoagulant effects of the compounds prepared in the Examples of the present invention were evaluated through the effects thereof on APTT of mice.
KM mice, weighing 28-30 g, male, 170 mice, provided by Chengdu Dashuo Biological Technology Co., Ltd.; Production facility license: SCXK (Chuan) 2008-24. Animals were housed in the animal room after purchased, adaptively observed for at least three days, and used for assays unless they were qualified for the quarantine standard.
(1) Grouping: mice were grouped and tested according to Table 1, wherein there were 10 mice in each group.
Mice in each group were administrated with the corresponding investigational drugs (mice in control group were administrated with the normal saline). At 1 hour after administration, blood was collected into 0.5 ml vacuum blood-collection tube containing sodium citrate from mice orbit. APTT values of animals were measured after collecting the blood samples.
Excel was used for statistics, experimental data were expressed as (x±SD), and two-sided T-test method was used to statistically compare the experimental data among multiple groups.

Structure (SMILES)	APTT (sec)	anticoagulant effect (APTT) compared with positive drug Apixaban
CSc1ccc(-n2nc(C(N)=O)c3c2C(=O)N(c2ccc(N4CCCCC4=O)cc2)CC3)cc1 [Example 2, 1-(4-methylthiophenyl)-7-oxo-6-[4-(2-oxo-piperidin-1-yl)phenyl]-4,5,6,7-tetrahydro-1H-pyrazolo[3,4-c]pyridine-3-carboxamide]	24.50 ± 2.50 * * ^Δ sec	superior to positive drug Apixaban
NC(=O)c1nn(-c2ccccc2F)c2c1CCN(c1ccc(N3CCCCC3=O)cc1)C2=O [Example 3, 1-(2-fluorophenyl)-7-oxo-6-[4-(2-oxo-piperidin-1-yl)phenyl]-4,5,6,7-tetrahydro-1H-pyrazolo[3,4-c]pyridine-3-carboxamide]	27.81 ± 3.42 * * ^ΔΔ sec	significantly better than positive drug Apixaban
COc1ccc(-n2nc(C(N)=O)c3c2C(=O)N(c2ccc(N4CCCCC4=O)cc2)CC3)cc1F [Example 4, 1-(3-fluoro-4-methoxyphenyl)-7-oxo-6-[4-(2-oxo-piperidin-1-yl)phenyl]-4,5,6,7-tetrahydro-1H-pyrazolo[3,4-c]pyridine-3-carboxamide]	24.78 ± 2.64 * * ^Δ sec	superior to positive drug Apixaban
COc1ccccc1-n1nc(C(N)=O)c2c1C(=O)N(c1ccc(N3CCCC3=O)cc1C)CC2 [Example 10, 1-(2-methoxyphenyl)-7-oxo-6-[2-methyl-4-(2-oxo-pyrrolidin-1-yl)phenyl]-4,5,6,7-tetrahydro-1H-pyrazolo[3,4-c]pyridine-3-carboxamide]	24.67 ± 2.37 * * ^Δ sec	superior to positive drug Apixaban
Cc1ccc(-n2nc(C(N)=O)c3c2C(=O)N(c2ccc(N4CCCC4=O)cc2C)CC3)c(C)c1 [Example 13, 1-(2,4-dimethyl-phenyl)-7-oxo-6-[2-methyl-4-(2-oxo-pyrrolidin-1-yl)phenyl]-4,5,6,7-tetrahydro-1H-pyrazolo[3,4-c]pyridine-3-carboxamide]	24.78 ± 2.67 * * ^Δ sec	superior to positive drug Apixaban
COc1ccc(-n2nc(C(N)=O)c3c2C(=O)N(c2ccc(N4CCCCC4=O)cc2C)CC3)cc1 [Example 19, 1-(4-methoxyphenyl)-7-oxo-6-[2-methyl-4-(2-oxo-piperidin-1-yl)phenyl]-4,5,6,7-tetrahydro-1H-pyrazolo[3,4-c]pyridine-3-carboxamide]	26.73 ± 3.12 * * ^ΔΔ sec	significantly better than positive drug Apixaban
Cc1cc(N2CCCCC2=O)ccc1N1CCc2c(C(N)=O)nn(-c3cccc(F)c3)c2C1=O [Example 20, 1-(3-fluorophenyl)-7-oxo-6-[2-methyl-4-(2-oxo-piperidin-1-yl)phenyl]-4,5,6,7-tetrahydro-1H-pyrazolo[3,4-c]pyridine-3-carboxamide]	24.71 ± 3.20 * * ^Δ sec	superior to positive drug Apixaban
COc1ccc(-n2nc(C(N)=O)c3c2C(=O)N(c2ccc(N4CCCCC4=O)cc2OC)CC3)cc1 [Example 21, 1-(4-methoxyphenyl)-7-oxo-6-[2-methoxy-4-(2-oxo-piperidin-1-yl)phenyl]-4,5,6,7-tetrahydro-1H-pyrazolo[3,4-c]pyridine-3-carboxamide]	24.65 ± 2.18 * * ^Δ sec	superior to positive drug Apixaban
